# Where two headings read alike, the source gives them in different places.
# What was measured:
# S. pasteurii urease = target: T1, S. pasteurii urease (Sporosarcina pasteurii, UniProt P41020); test: Purified S. pasteurii urease inhibition, cresol red assay, no preincubation; format: biochemical, Sporosarcina pasteurii CCM 2056; conditions: native purified urease, slow-binding, read-out: K i, S. pasteurii urease
# T1 construct: The native urease, purified from S. pasteurii CCM 2056; made in house; host or cells: Sporosarcina pasteurii CCM 2056 (native, endogenous enzyme, not recombinant)
# T1 sequence (P41020 whole entry): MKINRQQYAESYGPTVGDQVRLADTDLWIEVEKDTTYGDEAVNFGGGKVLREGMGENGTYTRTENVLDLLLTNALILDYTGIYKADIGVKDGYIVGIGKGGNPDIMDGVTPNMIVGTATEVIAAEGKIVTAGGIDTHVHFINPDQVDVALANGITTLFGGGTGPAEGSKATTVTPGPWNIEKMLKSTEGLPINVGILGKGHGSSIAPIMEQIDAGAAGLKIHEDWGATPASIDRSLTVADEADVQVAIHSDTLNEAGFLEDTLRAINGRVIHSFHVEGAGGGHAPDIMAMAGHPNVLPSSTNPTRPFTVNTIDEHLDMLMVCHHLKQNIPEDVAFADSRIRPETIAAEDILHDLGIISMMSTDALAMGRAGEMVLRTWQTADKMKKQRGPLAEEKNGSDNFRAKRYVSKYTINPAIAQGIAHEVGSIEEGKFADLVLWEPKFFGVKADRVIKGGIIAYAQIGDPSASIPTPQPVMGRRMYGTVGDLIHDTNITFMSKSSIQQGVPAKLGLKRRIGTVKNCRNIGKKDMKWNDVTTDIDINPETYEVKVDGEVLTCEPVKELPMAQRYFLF
# T1 sequence (P41022 whole entry, further chain): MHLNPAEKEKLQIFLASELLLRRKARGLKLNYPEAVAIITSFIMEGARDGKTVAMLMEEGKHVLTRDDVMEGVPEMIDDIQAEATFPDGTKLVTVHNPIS
# T1 sequence (P41021 whole entry, further chain): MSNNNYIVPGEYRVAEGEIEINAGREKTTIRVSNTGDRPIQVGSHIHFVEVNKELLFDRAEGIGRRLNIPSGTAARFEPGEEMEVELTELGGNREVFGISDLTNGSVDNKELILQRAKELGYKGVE
# Protocol: compounds. Helicobacter pylori 2CLM belongs to the collection of the Department of Microbiology, Wrocław Medical University, Poland.
# Purification of S. pasteurii urease
# The native urease from the cells of S. pasteurii was induced and purified in a five-step chromatographic procedure, as previously described.S5 The protein concentration was […]
# (§1) Enzymatic activity assays
# (§2) Purified urease activity with the addition of the organoselenium compounds studied was measured using cresol red as an indicator of pH changes caused by ammonia produced during ureolysis.S6 The reaction was carried out in 3 mM phosphate buffer containing 30 mM urea, 0.01 % w/v cresol red, purified urease (at a concentration that led to a change in A570 of approximately 1.5 in 90 min) and studied compounds at various concentrations. The reaction was followed by using a TECAN Sunrise spectrometer , and the resulting progress curves were further analyzed to determine the activity and binding mechanism. The rea ction was followed in a system without preincubation of the enzyme with the benzisoselenazolone derivatives (addition of urease initiated the measurement).
# The progress curves were fitted to the following equation to calculate the apparent reaction rate constants ( kapp):
# P = v ∗ t + 0 s ∗ (1 − e−kapp∗t)
# P – product concentration; t – time; v0 – initial state velocity; vs – steady state velocity.
# The kapp values were then plotted against the inhibitor concentration [I], and the resulting linear function was used to calculate the dissociation […] of the EI complex (Ki): […]
# [1] = system: multidrug-resistant clinical isolate H. pylori 2CML; test: Antimicrobial activity alone and in combination with antibiotics, checkerboard method; format: cell-based, Helicobacter pylori; conditions: for MIC: Helicobacter pylori
# Protocol: Combination of drugs against H. pylori 2CML
# A multidrug-resistant clinical isolate H. pylori 2CML from the collection of the Department of Microbiology, Wrocław Medical University)S7 was used to assess the antimicrobial activity of compounds 1 and 4m, in combination with Clarithromycin, Metronidazole, and Levofloxacin (Sigma-Aldrich). The experiments were carried out on flat-bottom 12-well microtiter plates (Bionovo, Legnica, Poland), arranged in a 48-well panel to use the checkboard method.S8 […]
# the selected antibiotic were placed in external wells along the x- and y-axes, respectively. The remaining wells contained varying concentrations of both compounds. Each well consisted of 1 mL of Brain Heart Infusion (Oxoid, Le Pont de Claix , France) broth with 5% foetal calf serum (Gibco, Paisley, Scotland, UK) , a bacterial suspension of 10^7 CFU/mL and the desired concentration of the antimicrobial (s) tested. Following the setup, the plates were incubated for 3 days at 37 °C under microaerophilic conditions (GENbox microaer kits, BioMerrieux, Marcy l’Etoile, France), shaking at 100 rpm.
# The minimum inhibitory concentration (MIC) was determined as the lowest concentration in which no microbial growth was observed .
# The interactions between antimicrobials were interpreted b y calculation of the fractional inhibitory concentration (FIC) index (FICI), defined as FICI = FICA + FICB (FICA = MIC of substance A in combination / MIC of substance A alone, FICB = MIC of substance B in combination / MIC of substance B alone). FICI ≤0.5 was considered as synergism; >0.5 but ≤1 as additivity, while […] as neutral.
# [2] = system: H. pylori Tx30a (ATCC 51932) live cells; test: Whole cell ureolysis assay, cresol red; format: cell-based, Helicobacter pylori
# Protocol: as §1
# as §2, with “measurement). […]” for “measurement).”
# Whole cell ureolysis assays
# To measure the inhibitory activity of the compounds studied against whole cells of ureolytic pathogens, the cresol red reaction was carried out using H. pylori cells that were washed twice with 10 mM PBS and used as a biocatalyst.S6 The reaction mixture contained 10 mM PBS, 10 […]
# mM urea, bacterial cells, and urease inhibitors. The results were then used to calculate the IC50 values of the organoselenium compounds against the whole cell ureolysis of H. pylori. […]
# [3] = system: Proteus mirabilis pathogenic cells; conditions: previously reported by the authors; reference number not given; read-out: IC50, ureolysis in Proteus mirabilis pathogenic cells; cited from earlier work
# [4] = pair 4m + Clarithromycin, H. pylori 2CML
# [5] = pair 4m + Levofloxacin, H. pylori 2CML
# [6] = pair 4m + Metronidazole, H. pylori 2CML
# [7] = Helicobacter pylori, ATCC51932, read-out: IC50, H. pylori whole-cell ureolysis, live cells of H. pylori Tx30a
# [8] = read-out: IC50, H. pylori whole-cell ureolysis, live cells of H. pylori Tx30a
# [9] = 72 h, H. pylori 2CML, single agent, read-out: MIC Alone
# [10] = H. pylori 2CML, single agent, read-out: MIC Alone
# [11] = pair Ebselen + Metronidazole, H. pylori 2CML
# [12] = pair Ebselen + Levofloxacin, H. pylori 2CML
# [13] = pair Ebselen + Clarithromycin, H. pylori 2CML
compound,measurement,setting,value
O=c1c2ccccc2[se]n1Cc1ccc(C(F)(F)F)c(F)c1 [4m],Ki,S. pasteurii urease,15.9 ± 1.9 nM
same,MIC,"[1]; 72 h, read-out: MIC Alone",1.17 µg/mL
same,MIC,[1]; read-out: MIC Alone,1.17 µg/mL
same,MIC,[1]; read-out: MIC alone,3.12 µM
same,FIC,[1]; pair 4m + Clarithromycin,0.0625
same,FICI,[1]; pair 4m + Clarithromycin,0.562
same,Interpretation,[1]; pair 4m + Clarithromycin,Additive (>0.5 but ≤1 as additivity)
same,MIC Combination,[1]; [4],0.0731 µg/mL
same,MIC in combination,[1]; [4],0.2 µM
same,FIC,[1]; pair 4m + Levofloxacin,0.5
same,FICI,[1]; pair 4m + Levofloxacin,1
same,Fold change of MIC (reduction),[1]; pair 4m + Levofloxacin,×2↓
same,Interpretation,[1]; pair 4m + Levofloxacin,Additive (>0.5 but ≤1 as additivity)
same,MIC Combination,[1]; [5],0.585 µg/mL
same,FIC,[1]; pair 4m + Metronidazole,0.125
same,FICI,[1]; pair 4m + Metronidazole,0.625
same,Interpretation,[1]; pair 4m + Metronidazole,Additive (>0.5 but ≤1 as additivity)
same,MIC Combination,[1]; [6],0.146 µg/mL
same,IC50,[2]; [7],< 100 nM
same,IC50,[2]; [8],93.5 ± 5.3 nM
O=c1c2ccccc2[se]n1Cc1ccc(Cl)c(C(F)(F)F)c1 [4n],Ki,S. pasteurii urease,18.6 ± 0.37 nM
same,IC50,[2]; [7],153 ± 5.4 nM
O=c1c2ccccc2[se]n1Cc1ccc(F)c(F)c1 [4l],Ki,S. pasteurii urease,3.35 ± 0.65 nM
same,IC50,[2]; [7],110 ± 4.5 nM
O=c1c2ccccc2[se]n1Cc1c(F)cccc1F [4j],Ki,S. pasteurii urease,1.16 ± 0.14 nM
same,IC50,[2]; [7],218 ± 14 nM
O=c1c2ccccc2[se]n1Cc1cccc(C(F)(F)F)c1 [4c],Ki,S. pasteurii urease,2.5 ± 0.24 nM
same,IC50,[2]; [7],112 ± 2.4 nM
O=c1c2ccccc2[se]n1Cc1cc(F)cc(F)c1 [4p],Ki,S. pasteurii urease,1.3 ± 0.027 nM
same,IC50,[2]; [7],122 ± 4.1 nM
Cc1ncc([N+](=O)[O-])n1CCO [Metronidazole],MIC,[1]; [9],64 µg/mL
same,MIC,[1]; [10],64 µg/mL
same,FIC,[1]; pair 4m + Metronidazole,0.5
same,Fold change of MIC (reduction),[1]; pair 4m + Metronidazole,×2↓
same,MIC Combination,[1]; [6],32 µg/mL
same,FIC,[1]; pair Ebselen + Metronidazole,0.5
same,Fold change of MIC (reduction),[1]; pair Ebselen + Metronidazole,×2↓
same,MIC Combination,[1]; [11],32 µg/mL
O=c1c2ccccc2[se]n1Cc1ccc(Cl)cc1Cl [4f],Ki,S. pasteurii urease,0.594 ± 0.032 nM
same,IC50,[2]; [7],345 ± 16 nM
O=c1c2ccccc2[se]n1Cc1ccc(Cl)c(Cl)c1 [4k],Ki,S. pasteurii urease,15.9 ± 0.65 nM
same,IC50,[2]; [7],315 ± 4.7 nM
O=c1c2ccccc2[se]n1Cc1ccc(F)cc1 [4d],Ki,S. pasteurii urease,25.4 ± 2.8 nM
same,IC50,[2]; [7],193 ± 8.1 nM
O=c1c2ccccc2[se]n1Cc1cc(Cl)ccc1Cl [4h],Ki,S. pasteurii urease,9.04 ± 0.22 nM
same,IC50,[2]; [7],341 ± 23 nM
O=c1c2ccccc2[se]n1Cc1ccccc1 [compound 3],IC50,"[2]; Helicobacter pylori, ATCC51932, live cells of H. pylori Tx30a, read-out: IC50, H. pylori whole-cell ureolysis",151 ± 5.7 nM
"N-(4-chloro-2-fluorophenyl)-1,2-benzisoselenazol-3(2H)-one [compound 2, reference compound]",IC50,"[2]; live cells of H. pylori Tx30a, read-out: IC50, H. pylori whole-cell ureolysis",337 nM
C[C@H]1COc2c(N3CCN(C)CC3)c(F)cc3c(=O)c(C(=O)O)cn1c23 [Levofloxacin],MIC,[1]; [9],16 µg/mL
same,MIC,[1]; [10],16 µg/mL
same,FIC,[1]; pair 4m + Levofloxacin,0.5
same,Fold change of MIC (reduction),[1]; pair 4m + Levofloxacin,×2↓
same,MIC Combination,[1]; [5],8 µg/mL
same,FIC,[1]; pair Ebselen + Levofloxacin,0.5
same,Fold change of MIC (reduction),[1]; pair Ebselen + Levofloxacin,×2↓
same,MIC Combination,[1]; [12],8 µg/mL
"O=c1c2ccccc2[se]n1-c1ccccc1 [compound 1, N-phenyl-1,2-benzisoselenazol-3(2H)-one]",IC50,[3],29.2 ± 3.1 nM
same,MIC,[1]; [9],0.857 µg/mL
same,MIC,[1]; [10],0.857 µg/mL
same,MIC,"[1]; H. pylori 2CML, single agent, read-out: MIC alone",3.12 µM
same,FIC,[1]; pair Ebselen + Clarithromycin,0.5
same,FICI,[1]; pair Ebselen + Clarithromycin,1
same,Interpretation,[1]; pair Ebselen + Clarithromycin,Additive (>0.5 but ≤1 as additivity)
same,MIC Combination,[1]; [13],0.429 µg/mL
same,FIC,[1]; pair Ebselen + Levofloxacin,0.5
same,FICI,[1]; pair Ebselen + Levofloxacin,1
same,Interpretation,[1]; pair Ebselen + Levofloxacin,Additive (>0.5 but ≤1 as additivity)
same,MIC Combination,[1]; [12],0.429 µg/mL
same,FIC,[1]; pair Ebselen + Metronidazole,0.5
same,FICI,[1]; pair Ebselen + Metronidazole,1
same,Interpretation,[1]; pair Ebselen + Metronidazole,Additive (>0.5 but ≤1 as additivity)
same,MIC Combination,[1]; [11],0.429 µg/mL
same,IC50,[2]; [7],742 ± 41 nM
O=c1c2ccccc2[se]n1Cc1ccc(F)c(F)c1F [4r],Ki,S. pasteurii urease,2.94 ± 0.26 nM
same,IC50,[2]; [7],179 ± 3.3 nM
O=c1c2ccccc2[se]n1Cc1ccc(F)c(C(F)(F)F)c1 [4o],Ki,S. pasteurii urease,2.99 ± 0.088 nM
same,IC50,[2]; [7],107 ± 1.9 nM
O=c1c2ccccc2[se]n1Cc1cc(C(F)(F)F)cc(C(F)(F)F)c1 [4q],Ki,S. pasteurii urease,3.32 ± 0.29 nM
same,IC50,[2]; [7],208 ± 4.5 nM
O=c1c2ccccc2[se]n1Cc1ccccc1F [4a],Ki,S. pasteurii urease,3.61 ± 0.28 nM
same,IC50,[2]; [7],171 ± 5.4 nM
O=c1c2ccccc2[se]n1Cc1ccc(C(F)(F)F)cc1 [4e],Ki,S. pasteurii urease,2.1 ± 0.19 nM
same,IC50,[2]; [7],170 ± 1.6 nM
CC[C@H]1OC(=O)[C@H](C)[C@@H](O[C@H]2C[C@@](C)(OC)[C@@H](O)[C@H](C)O2)[C@H](C)[C@@H](O[C@@H]2O[C@H](C)C[C@H](N(C)C)[C@H]2O)[C@](C)(OC)C[C@@H](C)C(=O)[C@H](C)[C@@H](O)[C@]1(C)O [Clarithromycin],MIC,[1]; [9],16 µg/mL
same,MIC,[1]; [10],16 µg/mL
same,FIC,[1]; pair 4m + Clarithromycin,0.5
same,Fold change of MIC (reduction),[1]; pair 4m + Clarithromycin,×2↓
same,MIC Combination,[1]; [4],8 µg/mL
same,FIC,[1]; pair Ebselen + Clarithromycin,0.5
same,Fold change of MIC (reduction),[1]; pair Ebselen + Clarithromycin,×2↓
same,MIC Combination,[1]; [13],8 µg/mL
O=c1c2ccccc2[se]n1Cc1cc(F)ccc1Cl [4i],Ki,S. pasteurii urease,0.543 ± 0.015 nM
same,IC50,[2]; [7],< 100 nM
same,IC50,[2]; [8],96.4 ± 1.7 nM
O=c1c2ccccc2[se]n1Cc1ccc(F)cc1F [4g],Ki,S. pasteurii urease,2.52 ± 0.19 nM
same,IC50,[2]; [7],287 ± 18 nM
O=c1c2ccccc2[se]n1Cc1cccc(F)c1 [4b],Ki,S. pasteurii urease,12.2 ± 0.4 nM
same,IC50,[2]; [7],154 ± 8.4 nM

# From publication PMC11995230 (ACS Medicinal Chemistry Letters, 2025)
